The Ki is a dissociation constant, usually derived from enzyme kinetics or from competition with a known ligand.

Structures can show the parent of a compound that is named as a salt.

Assay [1] deals with human Adenosine A1 receptor (Homo sapiens (Human), UniProt P30542). The assay can be described thus: Adenosine receptor TR-FRET binding assay (A1). The following applies: inhibition of binding of 100 nM CA200645, CHO cell membranes. The procedure:
(§1) Biological Example 1—Adenosine Receptor Time-Resolved Fluorescence Resonance Energy Transfer (TRFRET) Binding Assay
(§2) All FRET binding experiments were conducted at room temperature in white 384-well plates, in assay binding buffer containing 1×LabMed (Cisbio, France), 100 μg/mL saponin, 1% DMSO and 0.02% pluronic acid. Binding of the fluorescently labelled Adenosine receptor antagonist XAC (CA200645, FRET acceptor) to terbium-labelled A1, A2a, A2b and A3 adenosine receptors (FRET donors) was detected by time-resolved FRET due to the close proximity of the donor and acceptor in a binding event. To investigate the ability of unlabelled test compounds to bind to Adenosine A1, A2a, A2b and A3 receptors, dose response curves were constructed that determined the ability of a range of concentrations to inhibit the binding of 30 nM CA200645 to the A2b receptor and 100 nM CA200645 to the A1, A2a, and A3 receptor.
(§3) Serial dilution (1:3 dilutions) of test compounds in neat DMSO and transfer of a 400 nL sample of test compound into the assay plate was carried out using the Mosquito (TTP Labtech, UK). The compound samples were incubated for 2 hours at room temperature with a fixed concentration of CA200645 defined for each receptor (see above) and CHO cell membranes containing the human Adenosine A1 (0.5 μg/well), A2a (0.3 μg/well), A2b (1 μg/well) or A3 (1 μg/well) receptor in 40 μL of assay buffer. Total and non-specific binding of CA200645 was determined in the absence and presence of 10 μM XAC, respectively. Following 2 hours incubation, the level of CA200645 binding was detected on a Pherastar FSX (BMG Labtech, Germany) using standard TR-FRET settings. The terbium donor was excited with three laser flashes at a wavelength of 337 nm, and donor and acceptor emission was detected at 620 nm and 665 nm wavelengths, respectively. FRET ratios were obtained by multiplying the acceptor/donor ratio value by 10,000. Specific binding was determined by subtracting the non-specific binding FRET ratio from the total binding FRET ratio. Compound IC50 curves were analysed using GraphPad Prism 7.0 (GraphPad, USA) and Ki affinity values were determined from the obtained IC50 values using the method of Cheng and Prusoff.

The target of assay [2] is human Adenosine A2a receptor (Homo sapiens (Human), UniProt P29274). Description: Adenosine receptor TR-FRET binding assay (A2a). The conditions noted are these: inhibition of binding of 100 nM CA200645, CHO cell membranes. The procedure: as §1, §2, §3
(In general: Time-resolved FRET reads energy transfer from a long-lived donor to a nearby acceptor.)

Assay [3] has as its target human Adenosine A2b receptor (Homo sapiens (Human), UniProt P29275). Description: Adenosine receptor TR-FRET binding assay (A2b). The following applies: TR-FRET, inhibition of binding of 30 nM CA200645, CHO cell membranes. The procedure: as §1, §2, §3

human Adenosine A2a receptor, sequence (P29274 whole entry): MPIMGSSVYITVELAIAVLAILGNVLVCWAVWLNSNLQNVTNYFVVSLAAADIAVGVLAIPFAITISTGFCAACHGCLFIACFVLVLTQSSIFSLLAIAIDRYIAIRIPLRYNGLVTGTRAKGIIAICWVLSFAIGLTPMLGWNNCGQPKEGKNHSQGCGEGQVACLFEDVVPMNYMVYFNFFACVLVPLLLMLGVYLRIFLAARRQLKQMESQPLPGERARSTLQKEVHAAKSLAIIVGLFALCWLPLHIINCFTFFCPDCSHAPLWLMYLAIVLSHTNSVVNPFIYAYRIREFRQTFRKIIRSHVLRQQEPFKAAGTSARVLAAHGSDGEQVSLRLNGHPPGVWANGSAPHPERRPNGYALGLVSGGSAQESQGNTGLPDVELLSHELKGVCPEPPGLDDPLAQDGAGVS
human Adenosine A1 receptor, sequence (P30542 whole entry): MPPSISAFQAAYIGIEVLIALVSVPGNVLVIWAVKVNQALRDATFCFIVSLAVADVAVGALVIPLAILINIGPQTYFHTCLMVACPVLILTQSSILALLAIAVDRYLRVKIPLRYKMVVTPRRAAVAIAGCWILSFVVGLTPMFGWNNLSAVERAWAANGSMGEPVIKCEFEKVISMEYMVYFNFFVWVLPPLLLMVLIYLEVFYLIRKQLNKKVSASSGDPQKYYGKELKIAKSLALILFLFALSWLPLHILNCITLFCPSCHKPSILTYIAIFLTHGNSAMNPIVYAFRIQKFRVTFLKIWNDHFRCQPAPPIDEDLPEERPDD
human Adenosine A2b receptor, sequence (P29275 whole entry): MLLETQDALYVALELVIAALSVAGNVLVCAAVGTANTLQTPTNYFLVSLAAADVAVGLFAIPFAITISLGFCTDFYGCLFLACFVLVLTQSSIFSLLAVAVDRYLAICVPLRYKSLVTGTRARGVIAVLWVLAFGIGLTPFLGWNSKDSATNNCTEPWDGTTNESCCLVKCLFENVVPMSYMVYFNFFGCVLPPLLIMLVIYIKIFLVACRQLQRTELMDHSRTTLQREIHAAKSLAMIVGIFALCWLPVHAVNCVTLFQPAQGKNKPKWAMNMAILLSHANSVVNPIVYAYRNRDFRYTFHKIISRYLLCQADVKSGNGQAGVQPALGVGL

Take `Cc1cc(-c2sc(NC(=O)N3CCN(CC(C)(C)O)CC3)nc2-c2cccc(C#N)c2)cc(C)n1` [Example 4.34, N-[4-(3-Cyanophenyl)-5-(2,6-dimethyl-4-pyridyl)thiazol-2-yl]-4-(2-hydroxy-2-methyl-propyl)piperazine-1-carboxamide]: the Ki is 268 nM in assay [1], 12.2 nM in assay [2] and 13 nM in assay [3].
Taken in the same sequence, the figures for `Cc1cc(-c2sc(NC(=O)N3C4CNCC3C4)nc2-c2cccc(C#N)c2)cc(C)n1` [Example 7.5, N-[4-(3-Cyanophenyl)-5-(2,6-dimethyl-4-pyridyl)thiazol-2-yl]-3,6-diazabicyclo[3.1.1]heptane-6-carboxamide] were 9 nM, 1.26 nM and 11.9 nM.
The like results for `Cc1cc(-c2sc(NC(=O)N3CCNCC3(C)C)nc2-c2cccc(C#N)c2)cc(C)n1` [Example 7.9, N-[4-(3-Cyanophenyl)-5-(2,6-dimethyl-4-pyridyl)thiazol-2-yl]-2,2-dimethyl-piperazine-1-carboxamide] were, in that order, 61 nM, 10.3 nM and 44.2 nM.
Turning to `Cc1cc(-c2sc(NC(=O)N3C[C@H]4CC[C@@H]3CN4)nc2-c2cccc(C#N)c2)cc(C)n1` [Example 7.6, (1R,4R)—N-[4-(3-Cyanophenyl)-5-(2,6-dimethyl-4-pyridyl)thiazol-2-yl]-2,5-diazabicyclo[2.2.2]octane-2-carboxamide], the Ki is 162 nM in assay [1], 4.09 nM in assay [2] and 22.6 nM in assay [3].
The like results for `Cc1cc(-c2sc(NC(=O)N3CCC4(CCN4C)C3)nc2-c2cccc(C#N)c2)cc(C)n1` (stereo not drawn) [Example 4.36, N-[4-(3-Cyanophenyl)-5-(2,6-dimethyl-4-pyridyl)thiazol-2-yl]-1-methyl-1,7-diazaspiro[3.4]octane-7-carboxamide formate salt] were, in that order, 316 nM, 2.48 nM and 13.8 nM.
Taken in the same sequence, the figures for `Cc1cc(-c2sc(NC(=O)N3[C@H](C)CNC[C@H]3C)nc2-c2cccc(C#N)c2)cc(C)n1` [Example 7.8, (2R,6R)—N-[4-(3-Cyanophenyl)-5-(2,6-dimethyl-4-pyridyl)thiazol-2-yl]-2,6-dimethyl-piperazine-1-carboxamide] were 194 nM, 6.73 nM and 60.2 nM.
Taken in the same sequence, the figures for `Cc1cc(-c2sc(NC(=O)N3C[C@@H](C)NC[C@@H]3C)nc2-c2cccc(C#N)c2)cc(C)n1` (relative stereo) [Example 7.11, trans-N-[4-(3-Cyanophenyl)-5-(2,6-dimethyl-4-pyridyl)thiazol-2-yl]-2,5-dimethyl-piperazine-1-carboxamide] were 110 nM, 12.8 nM and 78.7 nM.
In the case of `Cc1cc(-c2sc(NC(=O)N3C[C@H](C)NC[C@@H]3C)nc2-c2cccc(C#N)c2)cc(C)n1` [Example 7.7, (2S,5S)—N-[4-(3-Cyanophenyl)-5-(2,6-dimethyl-4-pyridyl)thiazol-2-yl]-2,5-dimethyl-piperazine-1-carboxamide], the figures for the Ki in assay [1], in assay [2] and in assay [3] were 49 nM, 5.27 nM and 18.2 nM, respectively.
Regarding `Cc1cc(-c2sc(NC(=O)N3CCNCC3CC3CC3)nc2-c2cccc(C#N)c2)cc(C)n1` (stereo not drawn) [Example 14.5, N-[4-(3-Cyanophenyl)-5-(2,6-dimethyl-4-pyridyl)thiazol-2-yl]-2-(cyclopropylmethyl)piperazine-1-carboxamide], the Ki is 61 nM in assay [1], 0.43 nM in assay [2] and 2.5 nM in assay [3].
Taken in the same sequence, the figures for `Cc1cc(-c2sc(NC(=O)N3C4CCC3CNC4)nc2-c2cccc(C#N)c2)cc(C)n1` [Example 7.4, N-[4-(3-Cyanophenyl)-5-(2,6-dimethyl-4-pyridyl)thiazol-2-yl]-3,8-diazabicyclo[3.2.1]octane-8-carboxamide] were 58 nM, 2.73 nM and 13.5 nM.

(Values after patent publication US20230293517A1, “ANTAGONIST COMPOUNDS” (AdoRx Therapeutics Limited, priority 2020, published 2023).)
